Calls of active or inactive are those of the source. The calls are words filed in the database; no cut-off is given here.
Tests used:
[1] = test system: Cucumis sativus; assay: Stimulation of radicular growth in Cucumis sativus at 100 ppm after 3 days; type: functional, organism-based
[2] = test system: Cucumis sativus; assay: Stimulation of radicular growth in Cucumis sativus at 1000 ppm after 3 days; type: functional, organism-based
[3] = test system: Sorghum bicolor; assay: Inhibition of radicular growth in Sorghum bicolor at 1000 ppm after 3 days; type: functional; conditions: 72 h
[4] = test system: Cucumis sativus; assay: Inhibition of radicular growth in Cucumis sativus at 1000 ppm after 3 days; type: functional, organism-based
[5] = test system: Sorghum bicolor; assay: Inhibition of radicular growth in Sorghum bicolor at 100 ppm after 3 days; type: functional; conditions: 72 h

SMILES	Activity [1]	Activity [2]	inhibition at 1000 ppm [3]	Activity [4]	inhibition at 100 ppm [5]
CC1(C)CCC[C@]2(C)[C@H]3Cc4occc4[C@@](C)(O)[C@@H]3[C@@H](O)[C@H](O)[C@@H]12	Active	inactive	13%		
C[C@]1(CO)CCC[C@]2(C)[C@H]3Cc4occc4[C@@](C)(O)[C@@H]3[C@@H](O)[C@H](O)[C@@H]12	Active		13%	Active	
CC1(C)CCC[C@]2(C)[C@H]3Cc4occc4[C@@H](C(=O)O)[C@@H]3[C@@H](O)[C@H](O)[C@@H]12	Active		65%	Active	39%
CC1(C)CCC[C@]2(C)[C@H]3Cc4occc4[C@H]4C(=O)O[C@@H]([C@H](O)[C@@H]12)[C@@H]43	Active	inactive	13%		
